Laboratory results published in DBAASP.
≈ marks a conversion by molar mass, not a printed value.

What was measured:
Assay in all cases: ≥ marks a high value that may be exact or a test limit, other limits are often not marked, values filed in µg/mL are converted to µM
[1] = tested on: Staphylococcus aureus ATCC 27660
[2] = tested on: Klebsiella pneumoniae ATCC 700603
Escherichia coli D31 = tested on: Escherichia coli D31
[3] = tested on: Pseudomonas aeruginosa ATCC 10145
[4] = tested on: Escherichia coli O157:H7 CICC 21530
[5] = tested on: Staphylococcus epidermidis ATCC 12228
[6] = tested on: Salmonella enterica subsp. enterica serovar Pullorum C79-13
[7] = tested on: Salmonella enterica subsp. enterica serovar Choleraesuis CVCC 503
[8] = tested on: Staphylococcus aureus ATCC 43300
[9] = tested on: Staphylococcus aureus ATCC 29213
[10] = tested on: Lacticaseibacillus rhamnosus 1.0936
Escherichia coli K88 = tested on: Escherichia coli K88
[11] = tested on: Streptococcus agalactiae BNCC 185941
[12] = tested on: Lacticaseibacillus rhamnosus 1.0911
[13] = tested on: Pseudomonas aeruginosa PAO1
[14] = tested on: Pseudomonas aeruginosa ATCC 27853
[15] = tested on: Salmonella enterica subsp. enterica serovar Typhimurium ATCC 14028
[16] = tested on: Lacticaseibacillus rhamnosus 1.9021
[17] = tested on: Lacticaseibacillus rhamnosus 8014
[18] = tested on: Legionella pneumophila Lens
Escherichia coli JC113 = tested on: Escherichia coli JC113
Bacillus subtilis JC443 = tested on: Bacillus subtilis JC443
[19] = tested on: Pseudomonas aeruginosa JC115
[20] = tested on: Staphylococcus aureus JC114
[21] = tested on: Staphylococcus aureus ATCC 25923
[22] = tested on: Pseudomonas aeruginosa 4007
[23] = tested on: Salmonella typhimurium KCTC 1926
[24] = tested on: Escherichia coli CCARM 1229
[25] = tested on: Pseudomonas aeruginosa 4891
[26] = tested on: Escherichia coli ATCC 25922
[27] = tested on: Trichosporon beigelii KCTC 7707
[28] = tested on: Listeria monocytogenes KCTC 3710
[29] = tested on: Staphylococcus aureus CCARM 3090
[30] = tested on: Escherichia coli CCARM 1238
[31] = tested on: Bacillus subtilis KCTC 1998
[32] = tested on: Candida albicans KCTC 7270
[33] = tested on: Staphylococcus aureus CCARM 3518
[34] = tested on: Candida tropicalis IOC 4560
[35] = tested on: Candida albicans IOC 4558
Escherichia coli SBS 363 = tested on: Escherichia coli SBS 363
Micrococcus luteus A270 = tested on: Micrococcus luteus A270
Cladosporium sp. = tested on: Cladosporium sp.
Penicillium expansum = tested on: Penicillium expansum
Cryptococcus neoformans = tested on: Cryptococcus neoformans
[36] = tested on: Candida tropicalis 092422

With `CC[C@H](C)[C@H](NC(=O)CNC(=O)[C@H](CCCCN)NC(=O)[C@H](Cc1ccccc1)NC(=O)[C@H](CC(C)C)NC(=O)[C@H](CCCCN)NC(=O)[C@H](CCCCN)NC(=O)[C@H](C)NC(=O)[C@H](CCCCN)NC(=O)[C@H](CCCCN)NC(=O)[C@H](Cc1ccccc1)NC(=O)CNC(=O)[C@H](CCCCN)NC(=O)[C@H](C)NC(=O)[C@H](Cc1c[nH]c2ccccc12)NC(=O)[C@@H](NC(=O)[C@H](CCCCN)NC(=O)[C@@H](NC(=O)[C@H](CC(C)C)NC(=O)[C@H](CCCCN)NC(=O)[C@@H](N)CCCCN)[C@@H](C)CC)C(C)C)C(=O)NCC(=O)O` [KKLIKVWAKGFKKAKKLFKGIG] the MIC [1] was 0.94 µM (≈ 2.37 µg/mL), the MIC [2] was 1.88 µM (≈ 4.73 µg/mL) and the MIC (Escherichia coli D31) was 0.94 µM (≈ 2.37 µg/mL). The MIC [3] was 1.88 µM (≈ 4.73 µg/mL).
In the case of `CC(C)C[C@H](NC(=O)CNC(=O)[C@H](CC(C)C)NC(=O)[C@H](Cc1c[nH]c2ccccc12)NC(=O)[C@H](CC(C)C)NC(=O)CNC(=O)[C@H](CC(C)C)NC(=O)[C@H](CCCCN)NC(=O)[C@@H](N)CCCCN)C(=O)N[C@@H](CCCCN)C(=O)N[C@@H](CCCCN)C(N)=O` [KKLGLWLGLKK], the MIC [4] is reported as 8 µM (≈ 10.3 µg/mL), the MIC [5] is reported as > 128 µM and the MIC [6] is reported as 8 µM (≈ 10.3 µg/mL). The MIC [7] was ≥ 64 µM, the MIC [8] was > 128 µM and the MIC [9] was > 128 µM. For the same compound, the MIC [10] was ≥ 128 µM, the MIC (Escherichia coli K88) was 8 µM (≈ 10.3 µg/mL) and the MIC [11] was ≥ 128 µM. For the same compound, the MIC [12] was ≥ 128 µM, the MIC [13] was 64 µM (≈ 82.1 µg/mL) and the MIC [14] was 32 µM (≈ 41 µg/mL). For the same compound, the MIC [15] was 64 µM (≈ 82.1 µg/mL), the MIC [16] was ≥ 128 µM and the MIC [17] was ≥ 128 µM.
Compound `CC[C@H](C)[C@H](NC(=O)[C@H](CC(C)C)NC(=O)CNC(=O)[C@H](CCCCN)NC(=O)[C@@H](NC(=O)[C@@H](NC(=O)[C@H](CCC(=O)O)NC(=O)[C@H](Cc1ccccc1)NC(=O)[C@@H](NC(=O)[C@H](CCCCN)NC(=O)[C@H](C)NC(=O)[C@@H](NC(=O)[C@@H](NC(=O)[C@H](CC(=O)O)NC(=O)[C@H](C)NC(=O)[C@@H](N)CCSC)C(C)C)[C@@H](C)CC)[C@@H](C)CC)[C@@H](C)CC)C(C)C)C(=O)N[C@@H](CC(=O)O)C(=O)N[C@@H](CCC(N)=O)C(=O)N[C@@H](Cc1ccccc1)C(=O)N[C@H](C(=O)N[C@@H](CCC(N)=O)C(=O)N[C@@H](CCCCN)C(=O)O)[C@@H](C)O` [MADVIAKIFEIVKGLIDQFTQK] has an MIC [18] of 1.85 µM (≈ 4.64 µg/mL).
`NC(=O)[C@H](Cc1ccccc1)NC(=O)[C@@H]1CSSC[C@H](NC(=O)[C@H](Cc2ccccc2)NC(=O)[C@H](Cc2ccccc2)NC(=O)[C@@H](N)Cc2ccccc2)C(=O)N[C@@H](CO)C(=O)N[C@@H](CCCN=C(N)N)C(=O)N1` [FFFCSRCF] was tested, and the MIC (Escherichia coli JC113) was ≥ 152 µM, the MIC (Bacillus subtilis JC443) was ≥ 171 µM and the MIC [19] was ≥ 157 µM. For the same compound, the MIC [20] was ≥ 180 µM.
`CC[C@H](C)[C@H](NC(=O)CNC(=O)[C@H](CCC(N)=O)NC(=O)[C@H](CO)NC(=O)[C@@H](NC(=O)[C@H](CCCCN)NC(=O)[C@H](CCCCN)NC(=O)[C@H](CC(C)C)NC(=O)[C@H](C)NC(=O)[C@H](CC(N)=O)NC(=O)[C@H](CC(C)C)NC(=O)CN)C(C)C)C(=O)N[C@@H](Cc1cnc[nH]1)C(=O)N[C@@H](CCC(=O)O)C(=O)N[C@@H](CO)C(=O)N[C@H](C(=O)N[C@@H](CCCCN)C(=O)N[C@@H](CC(C)C)C(=O)N[C@H](C(=O)N[C@@H](CC(N)=O)C(=O)N[C@@H](CC(N)=O)C(=O)N[C@@H](Cc1cnc[nH]1)C(=O)N[C@H](C(=O)N[C@@H](CCC(N)=O)C(N)=O)C(C)C)[C@@H](C)CC)[C@@H](C)CC` [GLNALKKVSQGIHESIKLINNHVQ] was tested, and the MIC [21] was 32 µM (≈ 84.5 µg/mL), the MIC [22] was ≥ 64 µM and the MIC [23] was 16 µM (≈ 42.2 µg/mL). For the same compound, the MIC [24] was ≥ 64 µM, the MIC [25] was ≥ 64 µM and the MIC [26] was 16 µM (≈ 42.2 µg/mL). The MIC [27] was ≥ 64 µM, the MIC [28] was ≥ 32 µM and the MIC [29] was ≥ 64 µM. For the same compound, the MIC [30] was ≥ 64 µM, the MIC [31] was ≥ 32 µM and the MIC [14] was 16 µM (≈ 42.2 µg/mL). The MIC [32] was ≥ 64 µM and the MIC [33] was ≥ 64 µM.
`CC(C)C[C@H](NC(=O)[C@H](Cc1ccccc1)NC(=O)[C@H](CC(=O)O)NC(=O)CNC(=O)[C@H](CCC(=O)O)NC(=O)CNC(=O)[C@H](CO)NC(=O)[C@H](CC(=O)O)NC(=O)[C@H](C)N)C(=O)N[C@@H](C)C(=O)N[C@@H](CCC(=O)O)C(=O)NCC(=O)NCC(=O)NCC(=O)N[C@H](C(=O)N[C@@H](CCCN=C(N)N)C(=O)O)C(C)C` [ADSGEGDFLAEGGGVR] was tested, and the MIC [34] was 7.39 µM (≈ 11.4 µg/mL), the MIC [35] was ≥ 59.4 µM and the MIC (Escherichia coli SBS 363) was 7.39 µM (≈ 11.4 µg/mL). For the same compound, the MIC (Micrococcus luteus A270) was ≥ 59.4 µM, the MIC (Cladosporium sp.) was ≥ 59.4 µM and the MIC (Penicillium expansum) was ≥ 59.4 µM. The MIC [14] was 7.39 µM (≈ 11.4 µg/mL) and the MIC (Cryptococcus neoformans) was ≥ 59.4 µM.
`CC[C@H](C)[C@H](NC(=O)[C@H](C)NC(=O)[C@@H]1CCCN1C(=O)[C@@H](NC(=O)[C@@H](N)Cc1ccccc1)C(C)C)C(=O)N[C@@H](CC(C)C)C(=O)N[C@H]1CSSC[C@@H](C(=O)O)NC(=O)[C@H]([C@@H](C)O)NC(=O)[C@H](CCCCN)NC(=O)[C@H](CC(C)C)NC(=O)[C@H]([C@@H](C)CC)NC(=O)[C@H](CO)NC1=O` [FVPAILCSILKTC] was tested, and the MIC [36] was ≥ 71 µM.
